Series [1] relates to HDAC proteins in HeLa cell lysates. Briefly: Global HDAC inhibition with HeLa cell lysates (HDAC-Glo I/II substrate). The format is biochemical. As to conditions: for Deacetylase activity (%): Hela Lysate; for IC50: HeLa cell lysates. On the procedure: HDAC activity was measured using the commercially available HDAC-Glo™ I/II substrate (Promega).
Lysates were prepared according to the reported procedure.^28 HeLa-S3 cells (purchased from Biovest) were lysed in lysis buffer (1×10^9 cells in 10 mL lysis buffer; 50 mM Tris-HCl, pH 8.0, 10% glycerol, 150 mM NaCl, 0.5% Triton X-100, and 1× protease inhibitor cocktail (GenDEPOT)) with rotation at 4° C. for 30 min. Cell debris was removed by centrifugation at 12000 rpm at 4° C. for 30 min. Protein concentration of the supernatant was determined using Bio-Rad protein assay (BioRad, Bradford reagent). Lysates were stored at −80° C.
To measure global HDAC inhibition, HeLa cell lysates (1 μg total protein) were mixed with HDAC-Glo™ buffer in polystyrene 96-well half area white plate (Corning) to a final volume of 12 μL, followed by addition of inhibitors in DMSO (0.5 μL) and incubation for 15 min at room temperature without rocking. An uninhibited control reaction was also included that contained DMSO (0.5 μL). Finally, deacetylase activity was measured using the HDAC-Glo™ assay kit (Promega) as per the manufacturer's protocol. Specifically, the HDAC-Glo™ substrate (1 mL) and developer ([…]) were first premixed to form the HDAC-Glo™ reagents. Then, to monitor deacetylase activity, HDAC-Glo™ reagent (5 μL) and HDAC-Glo™ buffer (7.5 μL) were added to each well (25 μL total volume) and incubated for 35 min at room temperature without rocking. The deacetylase activity was measured as luminescent signal using a GeniosPlus Fluorimeter (Tecan) at optimal gain. The concentrations of inhibitors reported in the dose-dependent studies (Table 2) are final concentrations after addition of HDAC-Glo™ reagent HDAC-Glo™ buffer.

The test system of series [2] is U937 cells. Briefly: In vitro cell growth inhibition, MTT assay, U937. The format is cell-based. The following applies: Homo sapiens, U-937, U937 cell line. (Tetrazolium assays rely on reduction of a dye to a coloured formazan, in cell work by metabolically active cells.)
Series [3] can be described thus: in vitro. The following applies: human, Jurkat cells (leukemia cell line).
In series [4] the test system is acetyl-α-tubulin (HDAC6 substrate) in U937 cells. Description: In cellulo selectivity testing, western blot of acetyl-α-tubulin. As to conditions: 18 hours, SAHA 5 μM, 1f 20-60 μM, compared to DMSO control. The format is cell-based. Background: A western blot detects proteins with antibodies after separation by electrophoresis.

Molecules are shown by their SMILES.

Regarding `CCC(CCCC(=O)Nc1ccccc1)CCC(=O)NO` (racemic) [Compound 1b, 4-ethyl-N^1-hydroxy-N^8-phenyloctanediamide], the “Deacetylase activity (%)” value is reported as 31 ± 2% in series [1] (2.4 × 10^−5 M); 92 ± 1% in series [1] (3.0 × 10^−6 M); 12 ± 1% in series [1] (4.8 × 10^−5 M); 82 ± 7% in series [1] (6.0 × 10^−6 M); 53 ± 3% in series [1] ([…] 10^−5 M). For the same molecule, in series [1], it took 14 ± 1 µM to reach half-maximal inhibition (IC50).

In the case of `CCCCCCC(CCCC(=O)Nc1ccccc1)CCC(=O)NO` (racemic) [Compound 1d, 4-hexyl-N^1-hydroxy-N^8-phenyloctanediamide], the “Deacetylase activity (%)” value in series [1] (1.0 × 10^−4 M) was 35 ± 3%; in series [1] (1.25 × 10^−5 M) it was 87 ± 1%; in series [1] (2.0 × 10^−4 M), 21 ± 3%; in series [1] (5.0 × 10^−5 M), 56 ± 2%; in series [1] ([…] 10^−5 M), 73 ± 2%. The IC50 – broadly, the concentration that inhibits the measured activity by half – in series [1] was 60 ± 1 µM. In addition, in series [2], the concentration for a half-maximal effect (EC50) (in general, the concentration that produces a half-maximal response) stood at 16 µM. The viability (in general, the share of living cells, or the viability signal relative to a control) at 44 h, 1 µM in series [3] was determined as 69 ± 4%. The viability at 44 h, 10 µM in series [3] was 39 ± 6%.

With `O=C(CCC(CCCC(=O)Nc1ccccc1)Cc1ccccc1)NO` (racemic) [Compound 1f, 4-benzyl-N^1-hydroxy-N^8-phenyloctanediamide], the “Deacetylase activity (%)” value in series [1] (1.0 × 10^−4 M) was found to be 35 ± 5%; in series [1] (1.25 × 10^−5 M), 88 ± 4%; in series [1] (2.0 × 10^−4 M) it was 19 ± 2%; in series [1] (5.0 × 10^−5 M), 58 ± 4%; in series [1] ([…] 10^−5 M) it was 74 ± 5%. This molecule yielded an IC50 in series [1] of 62 ± 1 µM. For the same molecule, the “levels of acetyl-α-tubulin (AcTub), western blot” value in series [4] is on record as “dose-dependent increase”. In series [2], this molecule showed an EC50 of 28 µM. This molecule also displayed a viability at 44 h, 1 µM in series [3] of 89 ± 20%. In series [3], the viability at 44 h, 10 µM is 97 ± 4%.
